The values below come from the RepoRT retention time repository.

Structures can show the parent of a compound that is named as a salt.

A short description of this series: RP, Waters ACQUITY UPLC HSS T3, 150 × 2.1 mm, 1.8 µm, 45 °C, 0.6 mL/min, estimated dead time 0.55 min; A: water + 0.1% formic acid, pH 3; B: acetonitrile + 0.1% formic acid, pH 3; gradient (min/%B) 0/1 0.1/1 10/55 10.15/65 10.30/75 10.45/85 10.60/95 10.70/100 11/100 11.55/100 11.65/1 11.70/1 11.80/1 11.90/1 12/1 12.10/1 12.15/1 12.65/1. As to conditions: stereoisomer not certain.
As for `O=C(O)CC(CC(=O)O)C(=O)O` [1,2,3-Propanetricarboxylic acid], the LC retention time is 1.38 min.

With `Cn1c(=O)c2c([nH]c(=O)n2C)n(C)c1=O` [1,3,7-Trimethyluric acid], the LC retention time was 2.95 min.

Turning to `Cn1c(=O)[nH]c2[nH]c(=O)n(C)c2c1=O` [1,7-Dimethyluric acid], the LC retention time is 2.57 min.

With `O=C(O)c1cc(O)ccc1O` [2,5-Dihydroxybenzoic acid], the LC retention time is 3.16 min.

As for `O=C(O)c1c(O)cccc1O` [2,6-Dihydroxybenzoic acid], the LC retention time was 3.76 min.

On to `CCC(C)(O)C(=O)O` (stereo not drawn) [2-Hydroxy-2-methylbutyric acid], for which the LC retention time is 2.45 min.

`CC(C)C(O)C(=O)O` (stereo not drawn) [2-Hydroxy-3-methylbutyric acid]: the LC retention time was 2.74 min.

On to `CC(C)(O)C(=O)O` [2-Hydroxyisobutyric acid], for which the LC retention time was 1.62 min.

For the molecule `O=C(O)Cc1ccccc1O` [2-Hydroxyphenylacetic acid], the LC retention time is 4.11 min.

For the molecule `CC(CCC(=O)O)C(=O)O` (stereo not drawn) [2-Methylglutaric acid], the LC retention time is 2.8 min.

As for `O=C(O)c1cc(O)cc(O)c1` [3,5-Dihydroxybenzoic acid], the LC retention time was 2.35 min.

Take `Cn1c(=O)[nH]c(=O)c2c1[nH]c(=O)n2C` [3,7-Dimethyluric acid]: the LC retention time is 1.94 min.

Take `CCCc1oc(CCC(=O)O)c(C(=O)O)c1C` [3-Carboxy-4-methyl-5-propyl-2-furanpropionic acid (CMPF)]: the LC retention time was 8.1 min.

For the molecule `CC(O)(CC(=O)O)CC(=O)O` [3-Hydroxy-3-methylglutaric acid], the LC retention time was 1.55 min.

Consider `O=C(O)CNC(=O)c1cccc(O)c1` [3-Hydroxyhippuric acid], for which the LC retention time is 2.73 min.

`CC(CO)C(=O)O` (stereo not drawn) [3-Hydroxyisobutyric acid]: the LC retention time was 1.59 min.

Turning to `CC(C)(O)CC(=O)O` [3-Hydroxyisovaleric acid], the LC retention time was 2.1 min.

For the molecule `O=C(O)Cc1cccc(O)c1` [3-Hydroxyphenylacetic acid], the LC retention time was 3.74 min.

For `CCC(C)C(=O)C(=O)O` (stereo not drawn) [3-Methyl-2-oxovaleric acid], the LC retention time is 3.22 min.

For `CC(CC(=O)O)CC(=O)O` [3-Methylglutaric acid], the LC retention time was 2.66 min.

As to `CCc1ccc(OS(=O)(=O)O)cc1` [4-Ethylphenylsulfate], the LC retention time was 5.73 min.

As to `O=C(O)c1ccc(O)cc1` [4-Hydroxybenzoic acid], the LC retention time is 3.16 min.

On to `O=C(O)C=Cc1ccc(O)cc1` [4-Hydroxycinnamic acid], for which the LC retention time is 4.35 min.

Take `O=C(O)CNC(=O)c1ccc(O)cc1` [4-Hydroxyhippuric acid]: the LC retention time was 2.45 min.

`O=C(O)Cc1ccc(O)cc1` [4-Hydroxyphenylacetic acid]: the LC retention time is 3.41 min.

On to `O=C(O)C(O)Cc1ccc(O)cc1` (stereo not drawn) [4-Hydroxyphenyllactic acid], for which the LC retention time was 2.81 min.

As for `O=S(=O)(O)Oc1ccc2[nH]ccc2c1` [5-Hydroxyindole sulfate], the LC retention time is 2.81 min.

Regarding `CC(CCC(=O)O)C1CCC2C3C(=O)CC4CC(O)CCC4(C)C3CC(O)C12C` (stereo not drawn) [7-Ketodeoxycholic acid], the LC retention time is 8.65 min.

Take `Cn1c[n+](C2OC(CO)C(O)C2O)c2nc(N)[nH]c(=O)c21` (stereo not drawn) [7-Methylguanosine]: the LC retention time is 2.05 min.

On to `CC(CC(=O)O)C1CCC2C3C(O)CC4CC(O)CCC4(C)C3CC(O)C12C` (stereo not drawn) [23-Norcholic acid], for which the LC retention time is 8.58 min.

In the case of `CC1=CC(=O)NS(=O)(=O)O1` [Acesulfame], the LC retention time is 1.9 min.

In the case of `CC(=O)Nc1ccc(OC2OC(C(=O)O)C(O)C(O)C2O)cc1` (stereo not drawn) [Acetaminophen glucuronide], the LC retention time was 1.92 min.

Regarding `CC(=O)Nc1ccc(OS(=O)(=O)O)cc1` [Acetaminophen sulfate], the LC retention time is 2.26 min.
